Test results reported in patent publication US8044206B2, “Nitrogen—containing heterocyclic derivatives having 2,6-disubstituted styryl” (Astellas Pharma Inc., priority 2003, dated 2011).
Structures can show the parent of a compound that is named as a salt.

Tests used:
[1] = tested on: sodium channel; test: [14C] guanidine uptake induced by veratridine in rat cerebral cortex primary neurons (sodium channel inhibitory action); assay type: cell-based; details: [14C] guanidine uptake induced by 100 μM veratridine, specific uptake = portion inhibited by 1 mM mexiletine, read-out: Na Channel Inhibition IC50
Procedure: The [^14C] guanidine uptake experiment was performed by the method of Bonisch et al. (British Journal of Pharmacology 108, 436-442, 1993) with some modifications. The [^14C] guanidine was used as a sodium tracer, and the inhibitory activity on uptake of [^14C] guanidine induced by veratridine as a sodium channel activator into rat cerebral cortex primary neurons was measured.
Pregnant rats (Wistar, female, 19 days of gestation) were anesthetized with ether. The animals were bled to death by giving incision through the carotid artery. The fetuses were taken out of the pregnant rats and after ethanol sterilization, the cerebral cortex was removed from the fetuses. The cerebral cortex was digested with papain and dispersed in culture medium, followed by plating on a poly-L-lysine-coated 96-well white plate at a density of 2.5×10^5 cells/well. Incubation was performed in a CO2 incubator (37° C., 5% CO2) for 2 days.
After each well was washed once with an assay buffer (135 mM choline Cl, 5 mM KCl, 1 mM MgSO4, 5.5 mM glucose, 1 mg/mL BSA, 10 mM Hepes-Tris, pH 7.4), a fresh assay buffer was added to the well, followed by incubation at 25° C. for 10 minutes. Then, a reaction solution (a test compound, [^14C] guanidine and 100 μM, veratridine) was replaced for the buffer, followed by incubation at 25° C. for 15 minutes. The reaction was terminated by washing 3 times with a cold wash buffer (135 mM NaCl, 5 mM KCl, 1 mM MgSO4, 10 mM Hepes-Tris, pH 7.4). To each well, 17 μl of 0.1N NaOH was added. After agitation, 100 μl of scintillator was added to the well and further agitation was continued. The radioactivity was quantified by a liquid scintillation counter. In each experiment, the sodium channel-specific uptake of the whole uptake was designated as portion that was inhibited by 1 mM mexiletine. The action of the test compound on sodium channel is expressed as 50% inhibition concentration (IC50) based on the specific uptake.

[2] = tested on: mice with streptozotocin (STZ)-induced diabetic neuropathy; test: Analgesic action in mice with streptozotocin (STZ)-induced diabetic neuropathy, tail pinch test; assay type: in vivo; details: male ICR mice, Day 15 after STZ, oral 30 mg/kg, 45 minutes prior to measurement, latency after minus before administration
Procedure: Representative compounds of Compound (I) of the present invention were assessed for the analgesic action in mice with streptozotocin (STZ)-induced diabetic neuropathy to confirm the effect on neuropathic pain. The assessment was performed by the method of Kamei et al. (Pharmacology Biochemistry & Behavior 39, 541-544, 1991) with some modifications.
Male ICR mice of 4 weeks old were intraperitoneally injected with 200 mg/kg weight of STZ to prepare mice with diabetic neuropathic pain. The analgesic action was assessed by the tail pinch test. […] On Day 14 following the STZ injection, a pretest was carried out to determine the response latency before the administration of a test compound. Only the animals showing not longer than 3 seconds of the response latency in the pretest were used for the test compound assessment on the following day (Day 15 after STZ injection).
In the test compound assessment, the response latency after the administration of a test compound was measured. The test compound was orally administered at a dose of 30 mg/kg, 45 minutes prior to the response latency measurement
The analgesic action of a test compound is expressed as prolongation of latency (in seconds) calculated by the formula: (response latency after administration of a test compound)−(response latency before administration of a test compound).

Structure (SMILES)	IC50 [1] [µM]	Anti-STZ-induced pain after oral administration: Latency prolongation [2] [s]
Cc1cccc(C)c1/C=C/c1ccncc1 [Example 25-2]	29	–
CCc1cccc(CC)c1/C=C/C1CCNCC1 [Example 40]	8.4	–
Cc1cc(C#N)cc(C)c1/C=C/C1CCNCC1 [Example 49, 3,5-dimethyl-4-[(E)-2-piperidin-4-ylvinyl]benzonitrile]	–	2.2
CCCCN(CCCC)C(=O)c1cc(C)c(/C=C/C2CCNCC2)c(C)c1 [Example 51]	15	–
COc1cc(C)c(/C=C/C2CCNCC2)c(C)c1 [Example 54]	19	–
Cc1cc(Br)cc(C)c1/C=C\C1CCNCC1 [Example 56]	6.7	–
Cc1cccc(C)c1/C=C/[C@H]1CCNC[C@@H]1C [Example 68, 4-[(E)-2-(2,6-dimethylphenyl)vinyl]-3-methylpiperidine hydrochloride]	8.7	–
Cc1cccc(C)c1/C=C/C1CCN(Cc2ccccc2)CC1 [Example 73, 1-benzyl-4-[(E)-2-(2,6-dimethylphenyl)vinyl]piperidine]	1.9	–
COCCN1CCC(/C=C/c2c(C)cccc2C)CC1 [Example 75]	3.5	–
Cc1cccc(C)c1/C=C/C1CCN(C(=O)c2nc(N)n[nH]2)CC1 [Example 87, 5-({4-[(E)-2-(2,6-dimethylphenyl)vinyl]piperidin-1-yl}carbonyl)-1H-1,2,4-triazol-3-amine]	–	1.6
O=C(CN1CCOCC1)N1CCC(/C=C/c2c(Cl)cccc2Cl)CC1 [Example 98]	12	–
Cc1cc(Oc2ccccc2)cc(C)c1/C=C/C1CCN(C(=O)CN2CCOCC2)CC1 [Example 99, 4-(2-{4-[(E)-2-(2,6-dimethyl-4-phenoxyphenyl)vinyl]piperidin-1-yl}-2-oxoethyl) morpholine]	–	1.7
Cc1cccc(C)c1/C=C/C1CCCN(C(=O)CN2CCOCC2)C1 (centres unmarked) [Example 101]	–	2.0
Cc1cccc(C)c1/C=C/C1CCCCN1C(=O)CN1CCOCC1 (centres unmarked) [Example 102, 4-(2-{2-[(E)-2-(2,6-dimethylphenyl)vinyl]piperidin-1-yl}-2-oxoethyl)morpholine]	–	2.1
Cc1cccc(C)c1/C=C/CC1CCN(C(=O)CN2CCOCC2)CC1 [Example 103]	5	–
Cc1cccc(C)c1/C=C/C1CCN(C(=O)CN2CCN(C(=O)c3cccnc3)CC2)CC1 [Example 105, 1-(2-{4-[(E)-2-(2,6-dimethylphenyl)vinyl]piperidin-1-yl}-2-oxoethyl)-4-(pyridin-3-ylcarbonyl)piperazine]	–	1.8
Cc1cccc(C)c1/C=C/C1CCN(C(=O)C(C)(C)N)CC1 [Example 108, (2-{4-[(E)-2-(2,6-dimethylphenyl)vinyl]piperidin-1-yl}-1,1-dimethyl-2-oxoethyl)amine monohydrochloride]	–	1.8
Cc1cccc(C)c1/C=C/C1CCN(C(=O)C2(N)CCC2)CC1 [Example 110, [1-({4-[(E)-2-(2,6-dimethylphenyl)vinyl]piperidin-1-yl}carbonyl)cyclobutyl]amine]	–	2.1
Cc1cccc(C)c1/C=C/C1CCN(C(=O)[C@@H]2CCCN2)CC1 [Example 114, 4-[(E)-2-(2,6-dimethylphenyl)vinyl]-1-[(2S)-pyrolidin-2-ylcarbonyl]piperidine]	–	2.4
Cc1cccc(C)c1C=CC1CCN(C(=O)C2COCCN2)CC1 (centres unmarked) [Example 122]	9.4	–
Cc1cccc(C)c1/C=C/C1CCN(C(=O)Cn2ccnc2)CC1.Cl [Example 125, 4-[(E)-2-(2,6-dimethylphenyl)vinyl]-1-(1H-imidazol-1-ylacetyl)piperidine monohydrochloride]	–	1.6

Structure (SMILES)	IC50 [1] [µM]	Anti-STZ-induced pain after oral administration: Latency prolongation [2] [s]
Cc1cccc(C)c1/C=C/C1CCN(C(=O)CNC2COC2)CC1 [Example 126, N-(2-{4-[(E)-2-(2,6-dimethylphenyl)vinyl]piperidin-1-yl}-2-oxoethyl)oxetane-3-amine]	–	1.5
Cc1cccc(C)c1/C=C/C1CCN(C(=O)CNC2CCOCC2)CC1 [Example 129, (2-{4-[(E)-2-(2,6-dimethylphenyl)vinyl]piperidin-1-yl}-2-oxoethyl)tetrahydro-2H-pyran-4-ylamine]	4.2	–
Cc1cccc(C)c1C=CC1CCN(C(=O)CNCC2CCCO2)CC1 (centres unmarked) [Example 130]	3.4	–
CC(=O)NCCNCC(=O)N1CCC(/C=C/c2c(C)cccc2C)CC1 [Example 134, N-{2-[(2-[4-[(E)-2-(2,6-dimethylphenyl)vinyl]piperidin-1-yl]-2-oxoethyl)amino]ethyl}acetamide]	–	1.7
Cc1cccc(C)c1/C=C/C1CCN(C(=O)CNCCO)CC1 [Example 135, 2-[(2-{4-[(E)-2-(2,6-dimethylphenyl)vinyl]piperidin-1-yl}-2-oxoethyl)amino]ethanol]	–	2.4
Cc1cccc(C)c1/C=C/C1CCN(C(=O)CN2CC=CC2)CC1 [Example 145]	6	–
Cc1cccc(C)c1/C=C/C1CCN(C(=O)CN2CCCCC2C(N)=O)CC1 (centres unmarked) [Example 150, 1-(2-{4-[(E)-2-(2,6-dimethylphenyl)vinyl]piperidin-1-yl}-2-oxoethyl)piperidine-2-carboxamide]	–	1.7
Cc1cccc(C)c1C=CC1CCN(C(=O)CN2CC(C)CC(C)C2)CC1 (centres unmarked) [Example 153, 1-(2-{4-(E)-2-(2,6-dimethylphenyl)vinyl]piperidin-1-yl}-2-oxoethyl)-3,5-dimethyl piperidine]	2.4	–
Cc1cccc(C)c1/C=C/C1CCN(C(=O)CN2CCC(Cc3ccccc3)CC2)CC1 [Example 165]	2.3	–
Cc1cccc(C)c1/C=C/C1CCN(C(=O)CN2CCC(N3CCCC3)CC2)CC1 [Example 170, 4-[(E)-2-(2,6-dimethylphenyl)vinyl]-1-[(4-pyrolidin-1-ylpiperidin-1-yl)acetyl]piperidine]	–	1.7
Cc1cccc(C)c1/C=C/C1CCN(C(=O)CN2CCN(C3CCCCC3)CC2)CC1 [Example 176]	2.5	–
Cc1cccc(C)c1/C=C/C1CCN(C(=O)CN2CCOCC2)CC1 [Example 179, 4-(2-{4-[(E)-2-(2,6-dimethylphenyl)vinyl]piperidin-1-yl}-2-oxoethyl)morpholine]	–	1.8
Cc1cccc(C)c1/C=C/C1CCN(C(=O)CN2CCOC(CO)C2)CC1 (centres unmarked) [Example 180, [4-(2-{4-[(E)-2-(2,6-dimethylphenyl)vinyl]piperidin-1-yl}-2-oxoethyl)morpholine-2-yl]methanol]	–	2.3
Cc1cccc(C)c1/C=C/C1CCN(C(=O)CN2CCSCC2)CC1 [Example 185]	6.7	–
Cc1cccc(C)c1/C=C/C1CCN(C(=O)CN2CCCOCC2)CC1 [Example 189, 4-(2-{4-[(E)-2-(2,6-dimethylphenyl)vinyl]piperidin-1-yl}-2-oxoethyl)-1,4-oxazepane]	–	2.4
Cc1cccc(C)c1C=CC1CCN(C(=O)CN2CCCC3CCCCC32)CC1 (centres unmarked) [Example 192]	1.1	–
Cc1cccc(C)c1/C=C/C1CCN(C(=O)CNCCN)CC1 [Example 198]	8.5	–
Cc1cccc(C)c1/C=C/C1CCN(C(=O)CN2CCC(N)CC2)CC1 [Example 203, 1-(2-{4-[(E)-2-(2,6-dimethylphenyl)vinyl]piperidin-1-yl}-2-oxoethyl)piperidine-4-amine]	–	1.7
Cc1cccc(C)c1C=CC1CCN(C(=O)CN(C)CC2CCCO2)CC1 (centres unmarked) [Example 211]	3	–
Cc1cccc(C)c1/C=C/C1CCN(C(=O)CN(C)CCN2CCOCC2)CC1 [Example 213]	3.7	–
